Several values for one entry are separate records, joined by “and”; a condition that tells them apart may be missing. Equal values may be shown once. Inconclusive results and toxic doses are left out.

The text below walks through data of PubChem BioAssay AID330 (DTP/NCI, 2004).

This test concerns P388 leukemia ip, CD2F1 mice, survival T/C. Put plainly: NCI In Vivo Anticancer Drug Screen. Data for tumor model P388 Leukemia (intraperitoneal) in CD2F1 (CDF1) mice. As to conditions: endpoint: median survival time, higher = longer survival. The essentials: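 Mice carrying the transplanted tumor received test compound or vehicle. Survival was recorded in each group, and the value is the treated-group measurement divided by that of the vehicle-treated control group.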

[1] abbreviates: dose: 50.0 mg/kg/injection, schedule: Q01DX009 (ip), vehicle: Klucel (hydroxypropylcellulose) (HPC).
The mark [2] stands for this setting: dose: 100.0 mg/kg/injection, schedule: Q01DX009 (ip), vehicle: Klucel (hydroxypropylcellulose) (HPC).
[3] abbreviates: dose: 200.0 mg/kg/injection, schedule: Q01DX009 (ip), vehicle: Klucel (hydroxypropylcellulose) (HPC).
[4] abbreviates: dose: 400.0 mg/kg/injection, schedule: Q01DX009 (ip), vehicle: Klucel (hydroxypropylcellulose) (HPC).
Setting [5] is: dose: 12.5 mg/kg/injection, schedule: Q01DX009 (ip), vehicle: saline with Tween-80.
The mark [6] stands for this setting: dose: 25.0 mg/kg/injection, schedule: Q01DX009 (ip), vehicle: saline with Tween-80.
[7] abbreviates: dose: 50.0 mg/kg/injection, schedule: Q01DX009 (ip), vehicle: saline with Tween-80.

`O=C(O)C1(Cc2ccccc2)C(=O)C=Cc2ccccc21` (centres undefined): the T/C was 101 % of control (dose: 100.0 mg/kg/injection, schedule: Q01DX001 (ip), vehicle: Klucel (hydroxypropylcellulose) (HPC)); 101 % of control (dose: 200.0 mg/kg/injection, schedule: Q01DX001 (ip), vehicle: Klucel (hydroxypropylcellulose) (HPC)); 97 % of control (dose: 400.0 mg/kg/injection, schedule: Q01DX001 (ip), vehicle: Klucel (hydroxypropylcellulose) (HPC)).
`CCC(=N\N=C(N)N)/C(C)=N\N=C(N)N`: the T/C reads like this: (dose: 50.0 mg/kg/injection, schedule: Q01DX005 (ip), vehicle: saline with Tween-80) 99 % of control; (dose: 100.0 mg/kg/injection, schedule: Q01DX005 (ip), vehicle: saline with Tween-80) 96 % of control.
Take `CC1=NNC(=O)C1`: the T/C under setting [1] is 86 % of control, the T/C under setting [2] was 102 % of control, the T/C under setting [3] is 94 % of control and the T/C under setting [4] is 106 % of control.
Regarding `CCCCC(CC)CCC(CC(C)C)OCCC#N` (centres undefined), the T/C reads like this: under setting [2], 100 % of control; under setting [3], 96 % of control; under setting [4], 90 % of control.
Consider `CC(C)=CCC1=CC(=O)C(CC=C(C)C)=CC1=O`, for which the T/C is, setting by setting: (dose: 3.12 mg/kg/injection, schedule: Q01DX009 (ip), vehicle: saline with Tween-80) 105 % of control; (dose: 6.25 mg/kg/injection, schedule: Q01DX009 (ip), vehicle: saline with Tween-80) 118 % of control; under setting [5], 100 % of control; under setting [6], 90 % of control and 96 % of control.
As to `Nc1nc(=S)c2[nH]cnc2[nH]1`, the T/C runs as follows: (dose: 0.25 mg/kg/injection, schedule: Q01DX009 (ip), vehicle: acid diluted with saline) 114 % of control; (dose: 0.25 mg/kg/injection, schedule: Q01DX009 (ip), vehicle: alkali diluted with saline) 120 % of control; (dose: 0.38 mg/kg/injection, schedule: Q01DX005 (ip), vehicle: alkali diluted with saline) 108 % of control; (dose: 0.5 mg/kg/injection, schedule: Q01DX009 (ip), vehicle: acid diluted with saline) 106 % of control; (dose: 0.5 mg/kg/injection, schedule: Q01DX009 (ip), vehicle: alkali diluted with saline) 119 % of control; (dose: 0.75 mg/kg/injection, schedule: Q01DX005 (ip), vehicle: alkali diluted with saline) 115 % of control. The T/C was 112 % of control (dose: 1.0 mg/kg/injection, schedule: Q01DX009 (ip), vehicle: acid diluted with saline); 109 % of control (dose: 1.12 mg/kg/injection, schedule: Q04DX003 (ip), vehicle: acid diluted with saline); 155 % of control (dose: 1.44 mg/kg/injection, schedule: Q01DX009 (ip), vehicle: acid diluted with saline); 123 % of control (dose: 1.5 mg/kg/injection, schedule: Q01DX005 (ip), vehicle: alkali diluted with saline); 154 % of control (dose: 1.5 mg/kg/injection, schedule: Q01DX009 (ip), vehicle: acid diluted with saline); 151 % of control (dose: 1.5 mg/kg/injection, schedule: Q01DX009 (ip), vehicle: alkali diluted with saline). The T/C (dose: 2.0 mg/kg/injection, schedule: Q01DX005 (ip), vehicle: alkali diluted with saline) was 157 % of control; the T/C (dose: 2.0 mg/kg/injection, schedule: Q01DX009 (ip), vehicle: acid diluted with saline) is 106 % of control; the T/C (dose: 2.0 mg/kg/injection, schedule: Q04DX003 (ip), vehicle: alkali diluted with saline) was 119 % of control; the T/C (dose: 2.25 mg/kg/injection, schedule: Q04DX003 (ip), vehicle: acid diluted with saline) was 119 % of control; the T/C (dose: 2.4 mg/kg/injection, schedule: Q01DX009 (ip), vehicle: acid diluted with saline) is 154 % of control and 170 % of control; the T/C (dose: 2.5 mg/kg/injection, schedule: Q04DX003 (ip), vehicle: alkali diluted with saline) is 116 % of control. In addition, the T/C (dose: 3.24 mg/kg/injection, schedule: Q04DX003 (ip), vehicle: acid diluted with saline) is 117 % of control; the T/C (dose: 4.5 mg/kg/injection, schedule: Q01DX009 (ip), vehicle: saline) is 122 % of control; the T/C (dose: 4.5 mg/kg/injection, schedule: Q04DX003 (ip), vehicle: acid diluted with saline) was 119 % of control; the T/C (dose: 5.0 mg/kg/injection, schedule: Q04DX003 (ip), vehicle: alkali diluted with saline) was 108 % of control; the T/C (dose: 6.0 mg/kg/injection, schedule: Q01DX005 (ip), vehicle: alkali diluted with saline) was 116 % of control; the T/C (dose: 6.0 mg/kg/injection, schedule: Q01DX009 (ip), vehicle: acid diluted with saline) is 105 % of control. Also, the T/C was 113 % of control (dose: 12.0 mg/kg/injection, schedule: Q01DX005 (ip), vehicle: alkali diluted with saline) and 120 % of control (dose: 20.0 mg/kg/injection, schedule: Q04DX003 (ip), vehicle: alkali diluted with saline).
As to `CCOC(=O)N1CC23C(C)C(C)=C(C)C2C3(C)N1C(=O)OCC` (centres undefined), the T/C is 100 % of control (dose: 50.0 mg/kg/injection, schedule: Q01DX005 (ip), vehicle: Klucel (hydroxypropylcellulose) (HPC)); 100 % of control (dose: 100.0 mg/kg/injection, schedule: Q01DX005 (ip), vehicle: Klucel (hydroxypropylcellulose) (HPC)); 98 % of control (dose: 200.0 mg/kg/injection, schedule: Q01DX005 (ip), vehicle: Klucel (hydroxypropylcellulose) (HPC)).
With `CC1C(c2ccccc2)OCN1CC=C(c1ccsc1)c1ccsc1` (centres undefined), the T/C (dose: 60.0 mg/kg/injection, schedule: Q01DX005 (ip), vehicle: Klucel (hydroxypropylcellulose) (HPC)) is 96 % of control; the T/C (dose: 120.0 mg/kg/injection, schedule: Q01DX005 (ip), vehicle: Klucel (hydroxypropylcellulose) (HPC)) is 91 % of control; the T/C (dose: 240.0 mg/kg/injection, schedule: Q01DX005 (ip), vehicle: Klucel (hydroxypropylcellulose) (HPC)) is 91 % of control.
In the case of `NC(=O)C[n+]1ccccc1`, the T/C (dose: 50.0 mg/kg/injection, schedule: Q01DX009 (ip), vehicle: saline) is 101 % of control; the T/C (dose: 100.0 mg/kg/injection, schedule: Q01DX009 (ip), vehicle: saline) was 111 % of control; the T/C (dose: 200.0 mg/kg/injection, schedule: Q01DX009 (ip), vehicle: saline) was 118 % of control; the T/C (dose: 400.0 mg/kg/injection, schedule: Q01DX009 (ip), vehicle: saline) was 112 % of control.
Consider `O=NN(CCF)C(=O)NC1CCS(=O)(=O)CC1`, for which the T/C was 177 % of control (dose: 1.25 mg/kg/injection, schedule: Q04DX003 (ip), vehicle: saline); 220 % of control (dose: 2.5 mg/kg/injection, schedule: Q01DX009 (ip), vehicle: saline); 250 % of control (dose: 2.5 mg/kg/injection, schedule: Q04DX003 (ip), vehicle: saline); 300 % of control (dose: 5.0 mg/kg/injection, schedule: Q01DX009 (ip), vehicle: saline); 240 % of control (dose: 5.0 mg/kg/injection, schedule: Q04DX003 (ip), vehicle: saline with Tween-80); 272 % of control (dose: 5.0 mg/kg/injection, schedule: Q04DX003 (ip), vehicle: saline). Moreover, the T/C was 280 % of control (dose: 6.6 mg/kg/injection, schedule: Q04DX003 (ip), vehicle: saline with Tween-80); 300 % of control (dose: 10.0 mg/kg/injection, schedule: Q01DX009 (ip), vehicle: saline); 272 % of control and 285 % of control (dose: 10.0 mg/kg/injection, schedule: Q04DX003 (ip), vehicle: saline with Tween-80); 285 % of control (dose: 15.0 mg/kg/injection, schedule: Q04DX003 (ip), vehicle: saline with Tween-80).
Turning to `Cn1cc/c(=N\N=c2/ccn(C)c3ccccc23)c2ccccc21`, the T/C runs as follows: (dose: 25.0 mg/kg/injection, schedule: Q04DX002 (ip), vehicle: saline) 101 % of control; (dose: 50.0 mg/kg/injection, schedule: Q04DX002 (ip), vehicle: saline) 104 % of control; (dose: 100.0 mg/kg/injection, schedule: Q04DX002 (ip), vehicle: saline) 99 % of control and 103 % of control.
Consider `O=S1(=O)c2ccccc2C(O)(c2ccccc2)c2cc3ccccc3n21` (centres undefined), for which the T/C is 93 % of control under setting [7]; 96 % of control (dose: 100.0 mg/kg/injection, schedule: Q01DX009 (ip), vehicle: saline with Tween-80); 92 % of control (dose: 200.0 mg/kg/injection, schedule: Q01DX009 (ip), vehicle: saline with Tween-80).
Regarding `O=[N+]([O-])c1ccc(NS(=O)(=O)c2cccs2)c([N+](=O)[O-])c1`, the T/C under setting [5] is 105 % of control, the T/C under setting [6] is 103 % of control and the T/C under setting [7] is 108 % of control.
As for `COc1ccc(Cl)cc1NC(=O)c1ccccc1F`, the T/C by setting is: under setting [1], 120 % of control; under setting [2], 104 % of control; under setting [3], 118 % of control.
